Results as given in ChEMBL document CHEMBL1909046, “DrugMatrix in vitro pharmacology data”.
pIC50, pKi: −log10 of the molar value.

molecular target: Beta-1 adrenergic receptor (Homo sapiens, UniProt P08588); experiment: DRUGMATRIX: Adrenergic beta1 radioligand binding (ligand: [125I] Cyanopindolol); format: cell membranes, CHO-K1, Membrane; settings: cho-k1; Not Active = under 50% inhibition at 10 µM
Sequence (P08588 whole entry): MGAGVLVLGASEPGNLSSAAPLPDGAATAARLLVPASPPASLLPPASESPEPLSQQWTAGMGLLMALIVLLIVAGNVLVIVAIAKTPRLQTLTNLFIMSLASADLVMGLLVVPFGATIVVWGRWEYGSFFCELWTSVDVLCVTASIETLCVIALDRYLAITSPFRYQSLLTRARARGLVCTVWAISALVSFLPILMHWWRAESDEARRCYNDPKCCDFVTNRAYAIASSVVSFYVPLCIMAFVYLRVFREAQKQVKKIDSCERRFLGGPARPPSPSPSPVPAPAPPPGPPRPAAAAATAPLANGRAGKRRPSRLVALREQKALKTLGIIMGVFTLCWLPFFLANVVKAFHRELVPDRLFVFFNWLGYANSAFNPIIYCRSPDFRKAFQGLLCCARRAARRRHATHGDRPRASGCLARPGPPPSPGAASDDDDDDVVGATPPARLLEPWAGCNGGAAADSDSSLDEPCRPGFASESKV

Structure (SMILES)	IC50
Cc1c(C)c2c(c(C)c1O)CCC(C)(CN1CCN(c3cc(N4CCCC4)nc(N4CCCC4)n3)CC1)O2 (stereo not given)	Not Active
COc1ccc(CCN(C)CCCC(C#N)(c2ccc(OC)c(OC)c2)C(C)C)cc1OC (stereo not given)	Not Active
CC(C)Cc1ccc([C@@H](C)C(=O)O)cc1 [(R)-IBUPROPHEN]	Not Active
CN(C)CCOC(c1ccccc1)c1ccccc1 [DIPHENHYDRAMINE]	Not Active
CCN(CC)CCOc1ccc(/C(=C(/Cl)c2ccccc2)c2ccccc2)cc1 [ENCLOMIPHENE]	Not Active
Fc1ccc(C(c2ccc(F)cc2)N2CCN(C/C=C/c3ccccc3)CC2)cc1 [FLUNARIZINE]	Not Active
CNCCC(Oc1ccc(C(F)(F)F)cc1)c1ccccc1 (stereo not given) [FLUOXETINE]	Not Active
Cc1ccc(NC(=O)c2ccc(CN3CCN(C)CC3)cc2)cc1Nc1nccc(-c2cccnc2)n1 [IMATINIB]	Not Active

molecular target: Beta-2 adrenergic receptor (Homo sapiens, UniProt P07550); experiment: DRUGMATRIX: Adrenergic beta2 radioligand binding (ligand: [3H] CGP-12177); format: cell membranes, CHO, Membrane; settings: cho; Not Active = under 50% inhibition at 10 µM
Sequence (P07550 whole entry): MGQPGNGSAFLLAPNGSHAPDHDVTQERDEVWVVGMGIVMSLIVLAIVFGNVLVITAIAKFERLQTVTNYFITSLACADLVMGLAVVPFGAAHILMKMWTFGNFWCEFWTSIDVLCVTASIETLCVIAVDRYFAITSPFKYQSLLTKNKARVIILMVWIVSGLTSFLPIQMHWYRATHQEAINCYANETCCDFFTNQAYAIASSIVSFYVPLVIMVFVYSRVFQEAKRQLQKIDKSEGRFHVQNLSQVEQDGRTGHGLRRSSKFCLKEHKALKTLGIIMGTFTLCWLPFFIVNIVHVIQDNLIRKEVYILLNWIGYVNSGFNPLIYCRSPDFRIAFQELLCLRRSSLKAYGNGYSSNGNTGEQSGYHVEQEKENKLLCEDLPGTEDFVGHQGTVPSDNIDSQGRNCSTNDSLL

Structure (SMILES)	IC50
Cc1c(C)c2c(c(C)c1O)CCC(C)(CN1CCN(c3cc(N4CCCC4)nc(N4CCCC4)n3)CC1)O2 (stereo not given)	Not Active
COc1ccc(CCN(C)CCCC(C#N)(c2ccc(OC)c(OC)c2)C(C)C)cc1OC (stereo not given)	Not Active
CC(C)Cc1ccc([C@@H](C)C(=O)O)cc1 [(R)-IBUPROPHEN]	Not Active
CN(C)CCOC(c1ccccc1)c1ccccc1 [DIPHENHYDRAMINE]	Not Active
CCN(CC)CCOc1ccc(/C(=C(/Cl)c2ccccc2)c2ccccc2)cc1 [ENCLOMIPHENE]	Not Active
Fc1ccc(C(c2ccc(F)cc2)N2CCN(C/C=C/c3ccccc3)CC2)cc1 [FLUNARIZINE]	Not Active
CNCCC(Oc1ccc(C(F)(F)F)cc1)c1ccccc1 (stereo not given) [FLUOXETINE]	Not Active
Cc1ccc(NC(=O)c2ccc(CN3CCN(C)CC3)cc2)cc1Nc1nccc(-c2cccnc2)n1 [IMATINIB]	Not Active

tested on: not listed separately; experiment: DRUGMATRIX: Tumor Necrosis Factor (TNF), Non-Selective radioligand binding (ligand: [125I] TNF-alpha); format: cell membranes, Membrane; settings: u-937; Not Active = under 50% inhibition at 10 µM

Structure (SMILES)	IC50	Ki
Cc1c(C)c2c(c(C)c1O)CCC(C)(CN1CCN(c3cc(N4CCCC4)nc(N4CCCC4)n3)CC1)O2 (stereo not given)	Not Active	Not Active
COc1ccc(CCN(C)CCCC(C#N)(c2ccc(OC)c(OC)c2)C(C)C)cc1OC (stereo not given)	Not Active	Not Active
CC(C)Cc1ccc([C@@H](C)C(=O)O)cc1 [(R)-IBUPROPHEN]	Not Active	Not Active

molecular target: T1, Nitric oxide synthase, inducible (Mus musculus, UniProt P29477); experiment: not given; parameters: species or system Escherichia coli; settings: not given;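 note: inhibition of iNOS enzyme activity measured with L-arginine as substrate; in other assays of this panel Not Active means under 50% inhibition at 10 µM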
T1 sequence (P29477 whole entry): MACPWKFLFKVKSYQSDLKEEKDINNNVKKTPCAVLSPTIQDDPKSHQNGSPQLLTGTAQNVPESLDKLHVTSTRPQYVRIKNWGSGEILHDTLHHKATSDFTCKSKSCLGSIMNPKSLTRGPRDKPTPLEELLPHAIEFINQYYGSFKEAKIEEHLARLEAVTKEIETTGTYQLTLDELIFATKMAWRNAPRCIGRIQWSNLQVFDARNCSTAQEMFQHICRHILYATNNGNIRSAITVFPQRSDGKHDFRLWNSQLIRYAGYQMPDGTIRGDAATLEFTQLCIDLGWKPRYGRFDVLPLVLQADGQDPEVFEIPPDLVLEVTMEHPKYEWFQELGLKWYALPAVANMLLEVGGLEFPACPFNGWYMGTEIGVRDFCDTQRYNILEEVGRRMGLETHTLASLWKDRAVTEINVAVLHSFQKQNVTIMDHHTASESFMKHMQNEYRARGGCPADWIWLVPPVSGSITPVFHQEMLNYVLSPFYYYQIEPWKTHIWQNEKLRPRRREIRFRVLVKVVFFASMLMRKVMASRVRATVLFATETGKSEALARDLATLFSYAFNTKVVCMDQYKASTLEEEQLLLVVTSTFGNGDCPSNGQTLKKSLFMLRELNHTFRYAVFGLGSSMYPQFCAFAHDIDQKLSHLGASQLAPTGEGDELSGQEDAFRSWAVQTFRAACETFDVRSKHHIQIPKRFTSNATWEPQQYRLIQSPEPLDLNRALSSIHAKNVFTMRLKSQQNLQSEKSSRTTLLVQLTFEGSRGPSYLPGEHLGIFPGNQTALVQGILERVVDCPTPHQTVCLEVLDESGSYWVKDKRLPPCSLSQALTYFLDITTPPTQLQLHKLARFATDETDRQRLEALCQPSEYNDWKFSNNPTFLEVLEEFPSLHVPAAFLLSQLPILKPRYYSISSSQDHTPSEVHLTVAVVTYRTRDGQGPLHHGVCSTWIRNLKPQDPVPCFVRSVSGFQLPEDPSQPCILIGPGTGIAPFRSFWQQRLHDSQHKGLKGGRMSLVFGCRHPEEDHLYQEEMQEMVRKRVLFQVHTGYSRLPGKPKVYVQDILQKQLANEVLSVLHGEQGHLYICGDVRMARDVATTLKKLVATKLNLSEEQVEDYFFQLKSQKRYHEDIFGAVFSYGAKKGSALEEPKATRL

Structure (SMILES)	IC50
Cc1c(C)c2c(c(C)c1O)CCC(C)(CN1CCN(c3cc(N4CCCC4)nc(N4CCCC4)n3)CC1)O2 (stereo not given)	Not Active
COc1ccc(CCN(C)CCCC(C#N)(c2ccc(OC)c(OC)c2)C(C)C)cc1OC (stereo not given)	Not Active
CC(C)Cc1ccc([C@@H](C)C(=O)O)cc1 [(R)-IBUPROPHEN]	Not Active
CN(C)CCOC(c1ccccc1)c1ccccc1 [DIPHENHYDRAMINE]	Not Active
CCN(CC)CCOc1ccc(/C(=C(/Cl)c2ccccc2)c2ccccc2)cc1 [ENCLOMIPHENE]	Not Active
Fc1ccc(C(c2ccc(F)cc2)N2CCN(C/C=C/c3ccccc3)CC2)cc1 [FLUNARIZINE]	Not Active
CNCCC(Oc1ccc(C(F)(F)F)cc1)c1ccccc1 (stereo not given) [FLUOXETINE]	Not Active
Cc1ccc(NC(=O)c2ccc(CN3CCN(C)CC3)cc2)cc1Nc1nccc(-c2cccnc2)n1 [IMATINIB]	Not Active

tested on: not listed separately; experiment: DRUGMATRIX: Phorbol Ester radioligand binding (ligand: [3H] PDBu); format: cell membranes, Mus musculus, ICR, Brain, Membrane; settings: Not Active = under 50% inhibition at 10 µM

Structure (SMILES)	IC50	Ki
Cc1c(C)c2c(c(C)c1O)CCC(C)(CN1CCN(c3cc(N4CCCC4)nc(N4CCCC4)n3)CC1)O2 (stereo not given)	Not Active	Not Active
COc1ccc(CCN(C)CCCC(C#N)(c2ccc(OC)c(OC)c2)C(C)C)cc1OC (stereo not given)	Not Active	Not Active
CC(C)Cc1ccc([C@@H](C)C(=O)O)cc1 [(R)-IBUPROPHEN]	Not Active	Not Active

molecular target: T2, Interstitial collagenase (Homo sapiens, UniProt P03956); experiment: biochemical; format: tissue-based, Rheumatoid synovial fibroblasts; settings: not given;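 note: MMP-1 enzyme inhibition assay using a peptide substrate; in other assays of this panel Not Active means under 50% inhibition at 10 µM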
T2 sequence (P03956 whole entry): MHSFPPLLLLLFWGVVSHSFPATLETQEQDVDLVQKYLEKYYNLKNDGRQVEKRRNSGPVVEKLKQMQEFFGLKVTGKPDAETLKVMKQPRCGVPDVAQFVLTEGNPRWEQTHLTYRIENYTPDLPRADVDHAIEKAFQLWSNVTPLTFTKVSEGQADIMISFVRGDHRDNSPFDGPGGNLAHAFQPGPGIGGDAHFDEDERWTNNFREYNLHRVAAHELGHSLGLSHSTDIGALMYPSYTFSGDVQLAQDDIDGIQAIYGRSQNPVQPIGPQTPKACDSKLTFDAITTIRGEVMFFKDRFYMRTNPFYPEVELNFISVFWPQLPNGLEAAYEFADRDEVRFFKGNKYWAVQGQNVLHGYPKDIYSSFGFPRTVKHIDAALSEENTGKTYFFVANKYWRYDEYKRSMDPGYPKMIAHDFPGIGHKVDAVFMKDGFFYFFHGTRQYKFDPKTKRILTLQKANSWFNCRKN

Structure (SMILES)	IC50
Cc1c(C)c2c(c(C)c1O)CCC(C)(CN1CCN(c3cc(N4CCCC4)nc(N4CCCC4)n3)CC1)O2 (stereo not given)	Not Active
COc1ccc(CCN(C)CCCC(C#N)(c2ccc(OC)c(OC)c2)C(C)C)cc1OC (stereo not given)	Not Active
CC(C)Cc1ccc([C@@H](C)C(=O)O)cc1 [(R)-IBUPROPHEN]	Not Active
CN(C)CCOC(c1ccccc1)c1ccccc1 [DIPHENHYDRAMINE]	Not Active
CCN(CC)CCOc1ccc(/C(=C(/Cl)c2ccccc2)c2ccccc2)cc1 [ENCLOMIPHENE]	Not Active
Fc1ccc(C(c2ccc(F)cc2)N2CCN(C/C=C/c3ccccc3)CC2)cc1 [FLUNARIZINE]	Not Active
CNCCC(Oc1ccc(C(F)(F)F)cc1)c1ccccc1 (stereo not given) [FLUOXETINE]	Not Active
Cc1ccc(NC(=O)c2ccc(CN3CCN(C)CC3)cc2)cc1Nc1nccc(-c2cccnc2)n1 [IMATINIB]	Not Active

molecular target: T3, 5-hydroxytryptamine receptor 1A (Rattus norvegicus, UniProt P19327); experiment: not given; format: cell membranes, CHO-K1, Membrane; settings: not given; note: in other assays of this panel Not Active means under 50% inhibition at 10 µM
T3 sequence (P19327 whole entry): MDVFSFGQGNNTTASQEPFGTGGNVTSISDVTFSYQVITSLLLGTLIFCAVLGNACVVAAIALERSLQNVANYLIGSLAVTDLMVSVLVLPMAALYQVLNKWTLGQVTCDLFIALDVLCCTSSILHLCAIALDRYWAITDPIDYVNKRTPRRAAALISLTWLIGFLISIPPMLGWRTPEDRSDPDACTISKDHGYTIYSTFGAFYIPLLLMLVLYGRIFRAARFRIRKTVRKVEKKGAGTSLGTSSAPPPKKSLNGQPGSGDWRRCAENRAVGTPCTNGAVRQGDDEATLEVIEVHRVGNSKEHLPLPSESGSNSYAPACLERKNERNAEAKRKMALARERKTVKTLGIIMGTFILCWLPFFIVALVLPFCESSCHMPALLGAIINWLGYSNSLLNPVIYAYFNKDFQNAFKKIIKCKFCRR

Structure (SMILES)	pIC50
COc1ccc(CCN(C)CCCC(C#N)(c2ccc(OC)c(OC)c2)C(C)C)cc1OC (stereo not given)	5.52

same assay, conditions: cho-k1

Structure (SMILES)	IC50
Cc1c(C)c2c(c(C)c1O)CCC(C)(CN1CCN(c3cc(N4CCCC4)nc(N4CCCC4)n3)CC1)O2 (stereo not given)	Not Active
CC(C)Cc1ccc([C@@H](C)C(=O)O)cc1 [(R)-IBUPROPHEN]	Not Active
CN(C)CCOC(c1ccccc1)c1ccccc1 [DIPHENHYDRAMINE]	Not Active
CCN(CC)CCOc1ccc(/C(=C(/Cl)c2ccccc2)c2ccccc2)cc1 [ENCLOMIPHENE]	Not Active
CNCCC(Oc1ccc(C(F)(F)F)cc1)c1ccccc1 (stereo not given) [FLUOXETINE]	Not Active
Cc1ccc(NC(=O)c2ccc(CN3CCN(C)CC3)cc2)cc1Nc1nccc(-c2cccnc2)n1 [IMATINIB]	Not Active

same assay, conditions: read-out: IC50

Structure (SMILES)	pIC50
Fc1ccc(C(c2ccc(F)cc2)N2CCN(C/C=C/c3ccccc3)CC2)cc1 [FLUNARIZINE]	5.37

same assay, conditions: read-out: Ki

Structure (SMILES)	pKi
COc1ccc(CCN(C)CCCC(C#N)(c2ccc(OC)c(OC)c2)C(C)C)cc1OC (stereo not given)	5.76
Fc1ccc(C(c2ccc(F)cc2)N2CCN(C/C=C/c3ccccc3)CC2)cc1 [FLUNARIZINE]	5.61

molecular target: Voltage-gated inwardly rectifying potassium channel KCNH2 (Homo sapiens, UniProt Q12809); experiment: not given; settings: hek293; note: in other assays of this panel Not Active means under 50% inhibition at 10 µM
Sequence (Q12809 whole entry): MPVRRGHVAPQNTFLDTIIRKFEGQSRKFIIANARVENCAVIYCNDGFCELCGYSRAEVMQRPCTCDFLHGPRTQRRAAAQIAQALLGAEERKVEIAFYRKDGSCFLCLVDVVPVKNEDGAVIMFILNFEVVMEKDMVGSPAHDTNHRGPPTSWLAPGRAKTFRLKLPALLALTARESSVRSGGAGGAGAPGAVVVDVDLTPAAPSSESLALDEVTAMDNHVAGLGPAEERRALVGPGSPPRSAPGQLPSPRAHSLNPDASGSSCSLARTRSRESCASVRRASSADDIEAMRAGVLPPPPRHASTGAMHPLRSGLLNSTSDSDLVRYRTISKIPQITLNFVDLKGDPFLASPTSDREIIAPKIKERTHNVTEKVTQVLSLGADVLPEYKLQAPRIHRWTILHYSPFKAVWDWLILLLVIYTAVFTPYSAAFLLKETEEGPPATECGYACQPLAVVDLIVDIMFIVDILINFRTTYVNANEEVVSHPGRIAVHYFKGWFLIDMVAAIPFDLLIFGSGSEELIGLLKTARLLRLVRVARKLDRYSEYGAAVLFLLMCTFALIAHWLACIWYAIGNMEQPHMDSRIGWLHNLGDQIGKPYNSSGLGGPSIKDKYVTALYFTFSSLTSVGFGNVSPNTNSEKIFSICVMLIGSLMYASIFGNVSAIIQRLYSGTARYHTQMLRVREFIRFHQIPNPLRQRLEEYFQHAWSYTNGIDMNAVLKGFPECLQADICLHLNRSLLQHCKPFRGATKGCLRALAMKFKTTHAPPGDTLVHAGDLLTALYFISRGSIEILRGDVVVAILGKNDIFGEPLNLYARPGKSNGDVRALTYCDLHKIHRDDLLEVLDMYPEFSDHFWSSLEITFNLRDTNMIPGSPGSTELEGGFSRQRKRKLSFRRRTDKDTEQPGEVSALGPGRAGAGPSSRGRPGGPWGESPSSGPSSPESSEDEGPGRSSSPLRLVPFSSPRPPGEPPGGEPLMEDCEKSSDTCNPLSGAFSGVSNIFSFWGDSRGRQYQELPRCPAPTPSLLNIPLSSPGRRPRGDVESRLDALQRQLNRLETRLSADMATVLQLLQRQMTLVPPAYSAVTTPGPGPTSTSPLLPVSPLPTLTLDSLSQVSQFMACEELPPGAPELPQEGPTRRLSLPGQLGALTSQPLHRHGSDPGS

Structure (SMILES)	IC50	Ki
Cc1c(C)c2c(c(C)c1O)CCC(C)(CN1CCN(c3cc(N4CCCC4)nc(N4CCCC4)n3)CC1)O2 (stereo not given)	Not Active	Not Active
CC(C)Cc1ccc([C@@H](C)C(=O)O)cc1 [(R)-IBUPROPHEN]	Not Active	Not Active
CCN(CC)CCOc1ccc(/C(=C(/Cl)c2ccccc2)c2ccccc2)cc1 [ENCLOMIPHENE]	Not Active	Not Active
